For orientation: Km means the concentration of substrate that gives half-maximal velocity.

Experimental findings from US6552060B1, “Asymmetric disulfides and methods of using same” (Prolx Pharmaceuticals, Inc., priority 1997, dated 2003) are described below.

The nature of one data set: in vitro. Conditions: mouse.
A further data set concerns the target T1, TR/Trx (Homo sapiens, UniProt Q16881).
T1 sequence (Q16881 1-499 isoform Q16881-5): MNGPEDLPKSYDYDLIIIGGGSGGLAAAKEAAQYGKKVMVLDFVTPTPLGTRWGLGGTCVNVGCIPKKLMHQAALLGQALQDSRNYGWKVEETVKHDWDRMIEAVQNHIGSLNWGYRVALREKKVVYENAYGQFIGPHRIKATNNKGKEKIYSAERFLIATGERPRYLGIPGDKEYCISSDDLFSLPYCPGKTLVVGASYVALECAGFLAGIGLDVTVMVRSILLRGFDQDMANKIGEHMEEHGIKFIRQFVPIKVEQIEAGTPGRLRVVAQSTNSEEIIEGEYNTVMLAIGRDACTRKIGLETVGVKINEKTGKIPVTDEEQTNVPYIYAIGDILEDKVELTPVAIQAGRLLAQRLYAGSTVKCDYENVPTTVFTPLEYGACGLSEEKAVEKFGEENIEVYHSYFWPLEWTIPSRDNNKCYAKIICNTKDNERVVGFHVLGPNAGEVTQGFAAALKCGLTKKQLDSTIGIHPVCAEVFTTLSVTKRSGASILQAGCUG
Kind of data set: Thioredoxin dependent reduction of insulin by human thioredoxin reductase and NADPH (IC50 TR/Trx, 96 well). The format is biochemical. An excerpt:
When referring to the particular system being analyzed IC50 is typically followed by an abbreviation referring to that system (i.e., IC50 TR/Trx for the above described thioredoxin redox system which is comprised of thioredoxin reductase and thioredoxin).
A second plate was used for the assessment of biological activity or as a biological screen. Aliquots of disulfides dissolved in DMSO, were be transferred into 96 well plates. The assay to assess their ability to inhibit thioredoxin reductase measures the thioredoxin dependent reduction of insulin by human thioredoxin reductase and NADPH. The effects of the disulfides on the reduction of Trx by TR were measured spectrophotometrically by following the reduction of NADPH at 339 nm with insulin as the final electron acceptor in a buffered mixture of TR, Trx, NADPH and insulin.

Data set [1] has as its system EMT6 mouse mammary tumor cells. Kind of data set: Cytotoxicity against EMT6 cells in culture (MTT). Conditions: read-out: Disulfide Cytotoxicity (IC50), Table 5, 48 h exposure.
Data set [2] deals with T2, Human placental thioredoxin reductase (Homo sapiens, UniProt Q16881).
T2 sequence (Q16881 1-499 isoform Q16881-5): T1 sequence (Q16881 1-499 isoform Q16881-5)
Kind of data set: NADPH oxidation by thioredoxin reductase with the disulfide as substrate, or with thioredoxin and insulin as final electron acceptor and the disulfide as inhibitor. It counts as biochemical. The method, then:
The thioredoxin was stored at −20° C. with 5 mM dithiothreitol which was removed before use with a desalting column (PD10, Pharmacia, Uppsala, Sweden).
Asymmetrical 2-imidazolyl disulfides which were used as a basis for further development and identified below in Table 1. In Table I, NADPH oxidation by thioredoxin reductase was measured spectrophotometrically as described with either the disulfide as the electron acceptor (substrate) or with thioredoxin and insulin as the final electron acceptor and the disulfide as inhibitors. The reactions were initiated by the addition of NADPH. Km and Ki values were calculated from Lineweaver-Burk plots of the data.
The compounds of Table 1 were synthesized by a method described previously and recrystallized prior to use. Stock solutions of the disulfides were prepared at 10 mM in ethanol and diluted in aqueous media just prior to use. N-ethylmaleimide (NEM), diamide, and DTT were obtained from Sigma Chemical Co. (St. Louis, Mo.). All other chemicals used were of reagent grade. […]

Data set [3] relates to MCF-7 breast cancer cells in scid mice. Kind of data set: Activity against MCF-7 breast cancer cells in scid mice. The format is in vivo. The conditions noted are these: for T/C %: tumor volume treated versus control at day 28. The source says:
This is shown below in Table II.

The mark [4] stands for this setting: Table 4, read-out: Disulfide inhibition of TR/Trx (IC50 TR/Trx) (converted).
[5] abbreviates: Table 3, read-out: IC50 TR/Trx (converted).

SMILES strings stand for the structures. Values joined by “and” are separate entries in the source; they are usually repeats but may differ in a detail not shown here. Equal values may be shown once. Read-outs that look alike come from different tables or passages of the source.

Regarding `CCCSSC1CCCC1` [Compound F-27], the IC50 at 48 h in the data set “in vitro” was determined as 51 µM. In addition, the IC50 on TR/Trx (setting [4]) is 289 µM.

In “in vitro”, `CC(O)C(C)SSc1ccccc1` (centres unmarked) [Compound M-13] returned an IC50 at 48 h of 46 µM.

As for `Cc1nnc(SSC(C)C)s1` [Compound E-3], the IC50 in data set [1] is above 180 µM. In addition, on TR/Trx (Table 4), the “Disulfide inhibition of TR/Trx (IC50 TR/Trx)” value (“Disulfide inhibition of TR/Trx” below) worked out at 100 µg/mL.

As for `CCC(C)SSCc1ccccc1` (centres unmarked) [Compound F-19], in data set [1], the IC50 was 108 µM. In addition, the “Disulfide inhibition of TR/Trx” value at TR/Trx (Table 4) was above 189 µg/mL.

Regarding `CCC(C)SSc1nccs1` (centres unmarked) [Compound F-5], the IC50 at 48 h in the data set “in vitro” turned out to be 34 µM.

`CCC(C)SSc1nccc(C)n1` (centres unmarked) [Compound F-24]: the IC50 in data set [1] was above 180 µM. Further, the “Disulfide inhibition of TR/Trx” value on TR/Trx (Table 4) worked out at 83 µg/mL.

On to `CC(C)SSc1ncc[nH]1` [Compound E-1], for which the IC50 in data set [1] stood at 24 µM. The “Disulfide inhibition of TR/Trx” value at TR/Trx (Table 4) was determined as 7 µg/mL.

In the case of `CCC(C)SSc1nc2ccccc2o1` (centres unmarked) [Compound F-12], the IC50 in data set [1] was above 180 µM. Further, at TR/Trx (Table 4), the “Disulfide inhibition of TR/Trx” value was found to be 22 µg/mL.

On to `CCC(C)SSc1nc2ccccc2[nH]1` (centres unmarked) [Compound F-8], for which, in data set [1], the IC50 is 73 µM. The “Disulfide inhibition of TR/Trx” value at TR/Trx (Table 4) worked out at 7 µg/mL.

Regarding `CC(C)SSc1nccn1C` [Compound E-2], the IC50 in data set [1] was found to be 33 µM. The “Disulfide inhibition of TR/Trx” value at TR/Trx (Table 4) was 100 µg/mL.

Turning to `CCC(C)SSc1nc2ccccc2s1` (centres unmarked) [Compound F-11], in the data set “in vitro”, the IC50 turned out to be 33 µM.

Take `CC(C)SSc1ncccc1C(=O)O` [Compound E-23]: the IC50 in data set [1] is above 180 µM. The “Disulfide inhibition of TR/Trx” value on TR/Trx (Table 4) is 40 µg/mL.

Take `CC(C)CSSc1ncc[nH]1` [Compound G-1]: the IC50 in data set [1] is 28 µM. The “Disulfide inhibition of TR/Trx” value at TR/Trx (Table 4) was found to be 8 µg/mL.

Consider `CCC(C)SSCc1cccc(OC)c1` (centres unmarked) [Compound F-20], for which the IC50 in data set [1] was above 180 µM. In addition, the “Disulfide inhibition of TR/Trx” value at TR/Trx (Table 4) came to 61 µg/mL.

Consider `CCC(C)SSc1nc(N)nc2[nH]cnc12` (centres unmarked) [Compound F-6], for which, in data set [1], the IC50 was 23 µM.

Turning to `ClCCCSSc1ncnc2[nH]cnc12` [Compound H-7], in data set [1], the IC50 was determined as 36 µM.

In the case of `CC(C)SSCC(C)C(=O)N1CCCC1C(=O)O` (centres unmarked) [Compound E-28], the IC50 in data set [1] is above 180 µM.

In the case of `CCCCSSc1nccn1C` [Compound C-2], in data set [1], the IC50 came to 26 µM. In addition, the “Disulfide inhibition of TR/Trx” value at TR/Trx (Table 4) turned out to be 147 µg/mL.

With `CCSSc1ncc[nH]1` [VI-2, ethyl 2-imidazolyl disulfide], the Type result in data set [2] (behaviour towards thioredoxin reductase: substrate, inhibitor or non-reactive) is on record as “substrate”. Also, the Km in data set [2] (disulfide as substrate for reduction by thioredoxin reductase, Lineweaver-Burk) was 48 µM and 48.1 µM. The Toxicity dead/injected is recorded as 1/8 in data set [3] (4 mg/kg/day i.p. for 14 days), 0/8 in data set [3] (6 mg/kg/day i.p. for 14 days) and 4/8 in data set [3] (12 mg/kg/day i.p. for 14 days). The results for the T/C % in data set [3] (4 mg/kg/day i.p. for 14 days), in data set [3] (6 mg/kg/day i.p. for 14 days) and in data set [3] (12 mg/kg/day i.p. for 14 days) were 83.0%, 65.8% and 64.6%, respectively. In addition, the IC50 at 48 h in the data set “in vitro” was 8 µM. For the same molecule, the IC50 on TR/Trx (setting [4]) is 25 µM.

`CCC(C)SSc1nnc(C)s1` (centres unmarked) [Compound F-3]: the IC50 at 48 h in the data set “in vitro” was 7 µM. Further, the IC50 on TR/Trx (setting [5]) is 68.1 µM.

Turning to `CCC(C)SSc1ncccc1C(=O)O` (centres unmarked) [Compound F-23], the IC50 in data set [1] is above 180 µM. Besides, on TR/Trx (Table 4), the “Disulfide inhibition of TR/Trx” value was determined as 81 µg/mL.

As for `CC(O)C(C)SSc1ncccc1C(=O)O` (centres unmarked) [Compound M-23], the IC50 in data set [1] amounted to 96 µM.

Consider `CCC(C)SSc1ccccc1` (centres unmarked) [Compound F-13], for which, in data set [1], the IC50 was above 180 µM.

As for `CCC(C)SSC(C)c1ccccc1` (centres unmarked) [Compound F-22], the IC50 in data set [1] was above 180 µM. Besides, the “Disulfide inhibition of TR/Trx” value on TR/Trx (Table 4) turned out to be 201 µg/mL.

Take `CCCSSc1ncc[nH]1` [Compound B-1]: the IC50 in data set [1] amounted to 21 µM. The “Disulfide inhibition of TR/Trx” value at TR/Trx (Table 4) was determined as 7 µg/mL.

As to `O=[N+]([O-])c1ccc2[nH]c(SSCCCCl)nc2c1` [Compound H-10], the IC50 in data set [1] worked out at 59 µM.

`CC(O)C(C)SSc1nc2ccccc2o1` (centres unmarked) [Compound M-29] yielded an IC50 at 48 h in “in vitro” of 29 µM.

On to `Cc1nnc(SSC(C)C(C)O)s1` (centres unmarked) [Compound M-3], for which, in data set [1], the IC50 was at least 180 µM.

In the case of `CC(C)SSc1nc(N)nc2[nH]cnc12` [Compound E-6], the IC50 in data set [1] worked out at 42 µM.

As for `Cc1ccnc(SSC(C)C)n1` [Compound E-24], in data set [1], the IC50 was above 180 µM. The “Disulfide inhibition of TR/Trx” value on TR/Trx (Table 4) is 60 µg/mL.

With `CC(C)SSC(C)c1ccccc1` (centres unmarked) [Compound E-22], the IC50 in data set [1] is above 180 µM.

As for `CC(SSc1nccs1)c1ccccc1` (centres unmarked) [Compound J-1], in “in vitro”, the IC50 at 48 h was 28 µM. Also, the IC50 on TR/Trx (setting [5]) is 15.8 µM.

In the case of `Cc1ccc2[nH]c(SSC(C)C)nc2c1` [Compound E-9], the IC50 in data set [1] is above 180 µM.

`CCC(C)SSc1nc2cc([N+](=O)[O-])ccc2[nH]1` (centres unmarked) [Compound F-10]: the IC50 in data set [1] was determined as 36 µM. In addition, on TR/Trx (Table 4), the “Disulfide inhibition of TR/Trx” value was found to be 47 µg/mL.

`CCC(C)SSc1nnc(S)s1` (centres unmarked) [Compound F-4] displayed an IC50 at 48 h in the data set “in vitro” of 36 µM. Further, the IC50 on TR/Trx (setting [5]) is 117 µM.

Turning to `CC(SSC(C)C(C)O)c1ccccc1` (centres unmarked) [Compound M-22], the IC50 in data set [1] was at least 180 µM.

In the case of `CC(O)C(C)SSc1nc2cc([N+](=O)[O-])ccc2[nH]1` (centres unmarked) [Compound M-10], the IC50 in data set [1] is 34 µM.

Turning to `CCC(C)SSc1nccn1C` (centres unmarked) [Compound F-2], the IC50 in data set [1] stood at 43 µM. The “Disulfide inhibition of TR/Trx” value on TR/Trx (Table 4) was found to be 51 µg/mL.

Turning to `CCSSc1nccn1C` [Compound A-2], in data set [1], the IC50 was 15 µM. For the same molecule, at TR/Trx (Table 4), the “Disulfide inhibition of TR/Trx” value is 80 µg/mL.

Regarding `ClCCCSSCc1ccccc1` [Compound H-19], in data set [1], the IC50 turned out to be 108 µM.
